Results from US9210928B2, “Plant development control composition” (Syngenta Crop Protection, LLC, priority 2008, dated 2015).

How the values were obtained:
[1] = tested on: excised Arabidopsis nodes; test: Axillary bud outgrowth assay in Arabidopsis stem sections; assay type: in vivo; settings: 100 μM inhibitor, 1 μM NAA; Col-0; FIG. 5
Procedure: Axillary bud outgrowth assay in Arabidopsis stein sections—The assays were performed essentially as described (40) with the following modifications. Small Petri dishes (50 mm diameter, 20 mm depth) were filled with 10 ml of ATS (39) supplemented with 1% agar and 1% sucrose. Inhibitors and α-naphthalene acetic acid (NAA) were added to the agar before pouring to give 100 μM and 1 μM, respectively. Thus, when the central strip was cut out of the agar, both the apical and basal media contained both NAA and inhibitor. Any nodes in which the apical end had curled out of the media or which bud length was less than 2 mm at the end of the experiment were discounted. Measurement of the shoot length was performed every 24 hours. For each assay a logistic curve was fitted using Genstat (10th edition, VSN international) with the fitcurve directive and the lag phase was calculated by extrapolating the linear part of the curve and the initial plateau (see supplementary methods). The x value of where these two lines intersected represented the lag phase.
A logistic curve, y=A+C/(1+e^−B(t−m)), was fitted to the data for each shoot using GenStat (10th edition). The lag phase was then calculated using the equation m−(2/B) which effectively gave the t value (time) of the intercept of the two extrapolated lines from the linear part of the curve and the initial plateau.
Stimulation of shoot branching in Arabidopsis stem sections by application of inhibitor—Auxin inhibits the outgrowth of axillary buds in wild-type Arabidopsis plants. In the AtCCD7 and AtCCD8 null mutants (max3 and max4, respectively) the response to auxin is reduced, presumably due to a block in formation of an apocarotenoid hormone (recently shown (17,18) to be strigolactone or a related compound) that suppresses branching (19), and axillary buds extend earlier, leading to formation of side branches. An in vitro assay was previously developed in which the growth of axillary buds from isolated sections of Arabidopsis stem was used to assess max mutants (40). […]

whole Arabidopsis plants = test: Shoot branching in whole Arabidopsis plants grown in agar; assay type: in vivo; settings: applied to whole plants
Procedure: Branching phenotypes of Arabidopsis plants grown in agar media for 45 days supplemented with inhibitor D6. Images are shown: (a) Col-0 (WT) without inhibitor; (b) max3-9 mutant without inhibitor; (c) Col-0 with 100 μM D6. The numbers (d) of rosette branches were quantified. Error bars represent standard error of the mean, n=6 to 12.
Stimulation of shoot branching in whole Arabidopsis plants—Inhibitors were also applied to Arabidopsis whole plants grown under sterile conditions in agar. […] Inhibitor treated plants were intermediate (mean of approximately 2 branches) and so partially mimicked max3-9 (FIG. 6d).

`COc1ccc(C(=O)N(O)Cc2ccccc2)cc1` [Compound F1, N-benzyl-4-methoxybenzoyl hydroxamic acid] was tested, and the “effect on timing of bud outgrowth (in words)” value [1] was “relatively small activity” and the “unintended effects on whole Arabidopsis plants” value (whole Arabidopsis plants) was “caused bleaching of leaves”.

`COc1ccc(C(=O)N(O)Cc2ccc(F)cc2)cc1` [Compound F2, N-(4-fluorobenzyl)-4-methoxybenzoyl hydroxamic acid] was tested, and the “effect on timing of bud outgrowth (in words)” value [1] was “relatively small activity” and the “unintended effects on whole Arabidopsis plants” value (whole Arabidopsis plants) was “caused bleaching of leaves”.
